# Data as given in patent US20070020241A1, “Use of photosensitisation” (priority 2003, published 2007).
# How the values were obtained:
# [1] = tested on: 16 strains of EMRSA; conditions: red light, higher light doses; cited from earlier work
# [2] = tested on: S. aureus 8325-4; assay: Targeted photodynamic therapy using Φ11-SnCe6 conjugates and a laser light source; format: cell-based, Staphylococcus aureus; conditions: 1.15 μg ml^−1 SnCe6, 633 nm 35 mW HeNe laser 5 minutes (21 J/cm^2)
# Procedure: Bacteriophage Φ11 was propagated and precipitated as described above for phage 75, except that S aureus strain 8325-4 was used as the propagating strain. Tin chlorin e6 (SnCe6) was conjugated onto Staphylococcus phage Φ11 using the method described above, achieving bound concentrations of 2.3 and 3.5 μg ml^−1 SnCe6 with the phage Φ11 at 4.7×10^7 pfu.ml^−1. […] The final concentration of conjugated SnCe6 was 1.15 μg ml^−1.
# The light source was a 35 mW Helium/Neon laser and irradiation (when used) was for 5 minutes in the case of FIGS. 3 and 4, and for 10 minutes in the case of FIG. 5.
# [3] = tested on: EMRSA-16; assay: Lethal photosensitisation using phage 75-SnCe6 conjugate and a white light source; format: cell-based, Staphylococcus aureus; conditions: for % kill (L+S+): vs PBS in the dark
# Excerpt: (§1) Bacterial strains: S. aureus 8325-4 • EMRSA-16
# (§2) Light source: KL200 (Schott). This is a 20-watt halogen cold light source. The light guide attached to it is a flexible optic fibre bundle which is directed onto a 96 well plate at a distance of 5 cm. A square of 4-wells is placed at the centre of the light source.
# (§3) Approx light intensity=44,000 lux or 470 μW/nm
# (§4) Phage 75 was conjugated to SnCe6 as described above. Phages were used at a concentration of 1×10^7 pfu/ml.
# (§5) Overnight cultures of S. aureus grown in nutrient broth were centrifuged, resuspended in PBS and adjusted to an OD of 0.05 at 600 nm (approximately 4×10^7 cfu/ml)
# (§6) 50 μl of bacterial culture was aliquoted into a 96-well plate and 50 μl of the one of the following solutions added to the wells: • 1) 3.5 μg/ml SnCe6-phage 75 (final concentration 1.75 μg/ml, 1×10^6 pfu/well) in PBS • 2) 1.75 μg/ml SnCe6-phage 75 (final concentration 0.875 μg/ml, 5×10^5 pfu/well) in PBS • 3) 3.5 μg/ml SnCe6 in PBS (final concentration 1.75 μg/ml) • 4) 1.75 μg/ml SnCe6 in PBS (final concentration 0.875 μg/ml) • 5) PBS • 6) Phage 75 at a concentration of 5×10^5 or 1×10^6 pfu/well in PBS
# (§7) Wells were either exposed to white light (4 wells at a time) or wrapped in tin foil and stored in the dark.
# (§8) After various exposure times an aliquot was taken from each well, serially diluted and spread onto Columbia blood agar. Agar plates were incubated overnight at 37° C. and counted the next day.
# [4] = tested on: S. aureus 8325-4; assay: as above; format: cell-based, Staphylococcus aureus; conditions: for % kill (L+S+): vs PBS in the dark
# Excerpt: as §1, §2, §3, §4, §5, §6, §7, §8
# [5] = tested on: Streptococcus pyogenes ATCC 12202; assay: Lethal photosensitization of Streptococcus pyogenes using SnCe6 and laser light; format: cell-based
# Procedure: (§9) streptococcus pyogenes ATCC 12202 was grown in Brain Heart Infusion broth at 37° C. in an atmosphere consisting of 5% CO2 in air. The cells were harvested by centrifugation and re-suspended in phosphate buffered saline (PBS) and diluted to 1×10^7 cfu/ml in PBS. 20 μl samples of the diluted bacterial suspension were then placed into wells of a 96-well plate, together with a magnetic stirrer bar. 100 μl of different concentrations (1-50 μg/ml) of the SnCe6 in PBS was added to the bacterial suspensions. Controls were performed with 100 μl PBS added to the bacteria and either irradiated (L+S−) or kept in the dark (L−S−). The experiment was carried out in duplicate.
# (§10) After incubation, the contents of some of the wells were exposed to light from the 35 mW Helium/Neon laser emitting light with a wavelength of 633nm for 10 min, with stirring, corresponding to an energy density of 42 J/cm^2. Aluminium foil was placed in the surrounding wells to allow any escaping laser light to be reflected back into the target well. Control wells were not irradiated with laser light.
# After exposure to the laser light, 100 μl samples were immediately taken from each well and serially diluted, from 10^−1 to 10^−5, in 1 ml TSY in 1.5 ml Eppendorf tubes. Duplicate 50 μl aliquots of each dilution were then spread out on half a CBA plate. The plates were placed in a 37° C. incubator for up to 48 h and the resulting colonies were counted to determine the number of surviving organisms.
# [6] = tested on: Propionibacterium acnes ATCC 29399; assay: Lethal photosensitization of Propionibacterium acnes using SnCe6 and laser light; format: cell-based
# Procedure: as §9, with “Propionibacterium acnes ATCC 29399” for “streptococcus pyogenes ATCC 12202”, “acnes ATCC 29399 was grown” for “pyogenes ATCC 12202 was grown”, “grown in pre-reduced Brain Heart” for “grown in Brain Heart”, “in an anaerobic atmosphere. The cells” for “in an atmosphere consisting of 5% CO2 in air. The cells”, “diluted to 1×10^8 cfu/ml in” for “diluted to 1×10^7 cfu/ml in”
# as §10, with “633 nm” for “633nm”
# After exposure to the laser light, 100 μl samples were immediately taken from each well and serially diluted, from 10^−1 to 10^−5, in 1 ml of pre-reduced TSY in 1.5 ml Eppendorf tubes. Duplicate 50 μl aliquots of each dilution were then spread out on half a CBA plate. The plates were incubated anaerobically at 37° C. and the resulting colonies were counted to determine the number of surviving organisms.
# [7] = white light 10 min, final photosensitiser 0.875 μg/ml
# [8] = white light 10 min, final photosensitiser 1.75 μg/ml
# [9] = white light 20 min, final photosensitiser 1.75 μg/ml
# [10] = without exposure to white light
# [11] = 633 nm laser 10 min, 42 J/cm^2, 1-50 μg/ml
# [12] = dark, increasing concentrations (1-50 μg/ml)
# [13] = photosensitiser 50 μg/ml, 633 nm laser 10 min, 42 J/cm^2
Molecule,% killing [1],% kill (compared to control counts in phosphate buffered saline) [2],"% kill (L+S+) [3, 7]","% kill (L+S+) [3, 8]","% kill (L+S+) [3, 9]","bacterial counts of controls vs unirradiated suspension without photosensitiser [3, 10]","% kill (L+S+) [4, 7]","% kill (L+S+) [4, 8]","% kill (L+S+) [4, 9]","bacterial counts of controls vs unirradiated suspension without photosensitiser [4, 10]","effect on the viable count, irradiation [5, 11]","effect on the viable count, incubation in the dark [5, 12]","% kill of the organism [5, 13]","effect on the viable count, irradiation [6, 11]","effect on the viable count, incubation in the dark [6, 12]","% kill of the organism [6, 13]"
aluminium disulphonated phthalocyanine [AlPcS2],100%,–,–,–,–,–,–,–,–,–,–,–,–,–,–,–
"C=CC1=C(C)C2=CC3=NC(=C(CC(=O)[O-])C4=NC(=C(C)C4=C([O-])[O-])C=c4[n-]c(c(C)c4CC)=CC1=N2)C(CCC(=O)[O-])C3C.[H+].[Sn+4] (stereo not shown) [SnCe6, tin (IV) chlorin e6]",–,did not achieve any kill,0%,0%,99.78%,not significantly different,45.3%,97.8%,97.9%,not significantly different,concentration-dependent decrease in the viable count,no significant effect,99.9997%,concentration-dependent decrease in the viable count,no significant effect,100%
